Tests used:
RHOGDI1-RAC1 interaction = molecular target: T1, RHOGDI1-RAC1 interaction (Homo sapiens, UniProt P52565); test: Surface plasmon resonance: RHOGDI1-mediated displacement of GerGer-RAC1-GDP from immobilized liposomes; assay type: biochemical; settings: for Effect on kinetics of geranylgeranylated RAC1 extraction by RHOGDI1 (in words): SPR
T1 construct: GST; made in house; host or cells: RHOGDI1: E. coli; GerGer-RAC1: insect cells (TNAO38)
T1 sequence (P52565 1-204): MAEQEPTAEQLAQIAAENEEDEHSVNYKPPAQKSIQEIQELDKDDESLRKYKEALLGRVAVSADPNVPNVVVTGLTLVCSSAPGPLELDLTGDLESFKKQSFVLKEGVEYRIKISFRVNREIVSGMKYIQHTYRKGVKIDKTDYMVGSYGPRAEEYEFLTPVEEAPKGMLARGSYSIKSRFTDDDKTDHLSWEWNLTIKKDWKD
Method: (§1) RHOGDI1 displaced liposome -bound RAC1 from the surface of L1 chip with a koff of 0.016 […]
(§2) bound RAC1. Calculated rate constants by mono-exponential fitting of RU decays were 0.02 and 0.032 s-1 for RHOGDI1-mediated RAC1 displacement from the liposomes in the presence of 7a and 7d, respectively. (d) Competition-based fluorescence polarization experiments were performed by titration of 7a against 10 nM fluorescein-labelled atorvastatin and GST-PDEδ.
(§3) (e) Fluorescence polarization experiment using 10 nM probe 10 and titration of PDEδ.
(§4) (1 picture or pasted object on this page, not shown here)
Surface plasmon resonance (SPR)
Biacore® X100 instrument (Biacore, now GE Healthcare) was used to analyze the effect of 7a on the GerGer-RAC1-GDP and RHOGDI1 interaction. Liposomes suspended in SPR buffer (20 mM HEPES, pH 7.4, 50 mM NaCl, 5 mM MgCl2, 3 mM DTT) were immobilized by injecting 0.5 mM liposomes with flowrate of 5 µL/min on the surface of a Pioneer® L1 sensor chip (GE Healthcare) for the period of 900 s, as indicated by a constant signal. Unbound liposomes were removed by passing the buffer and 10 mM NaOH with flowrate of 5 µL/min for 30 s over the sensor chip. Buffer containing 15 µM GerGer-RAC1-GDP was passed with flowrate of 5 µL/min over the immobilized liposomes to facilitate the loading of GerGer-RAC1-GDP on to the liposomes. The effect of compounds on the association of GerGer-RAC1-GDP with liposomes and the resulting dissociation of GerGer-RAC1 upon passing 25 µM of RHOGDI1 was monitored by the change in the response unit signal.
Protein expression and purification
RHOGDI1 delta15, RHOGDI1 delta25, RHOGDI1-3 were produced in E. coli (XL1-Blue) as a GST recombinant protein as described previously.[9] In summary, protein were expressed in E.coli BL21 upon addition of IPTG overnight. Cell were collected and lysed in a lysis buffer, containing 30 mM Tris-NaOH pH 7.4, 150 mM NaCl, 1 mM DTT, and 5 mM MgCl2. Cells were further lysed using sonication. […]

PDEδ = molecular target: T2, PDEδ (Homo sapiens, UniProt O43924); test: Competition-based fluorescence polarization with fluorescein-labelled atorvastatin; assay type: binding; settings: selectivity test
T2 construct: GST (N); made in house; host or cells: E. coli Rosetta 2
Method: as §1, §2, §3, §4
Label-free quantification (LFQ) intensities were logarithmized (log2) and proteins, which were not three times quantified in at least one of the groups, were filtered off. […]
Fluorescence polarization
The binding of probe 10 to RHOGDI1-3 was confirmed by fluorescence polarization experiments. […] The change in fluorescence polarization was monitored at an excitation / emission wavelengths of 535 nm and 593 nm, respectively. […]
To determine the effect of 7a on the binding of RHOGDI1 to non-prenylated RAC1-GDP, fluorescence polarization measurements were performed by titrating 1 µM TAMRA-GDP-bound RAC1 with increasing concentrations of RHOGDI1 in the presence and absence of 50 µM 7a in buffer containing 30 mM Tris-HCl, pH 7.5, 150 mM NaCl, 5 mM MgCl2, 1% DMSO. […]

RHOGDI1 = molecular target: T3, RHOGDI1 (Homo sapiens, UniProt P52565); test: Limited proteolysis mass spectrometry (LiP-MS); assay type: binding; settings: 100 μM compound
T3 construct: GST; made in house; host or cells: E. coli (XL1-Blue / BL21)

RHO GTPases = test: Immunoblotting of total cellular RHO GTPase levels; assay type: cell-based; settings: 10 μM, 24 h

Rate constant of RHOGDI1-mediated RAC1 displacement from liposomes in presence of compound (RHOGDI1-RAC1 interaction; 25 µM RHOGDI1, mono-exponential fitting of RU decays)	Effect on kinetics of geranylgeranylated RAC1 extraction by RHOGDI1 (in words) (RHOGDI1-RAC1 interaction)	Competition with fluorescein-labelled atorvastatin for binding to PDEδ (in words) (PDEδ)	SMILES	Protection of RHOGDI1 peptides from proteinase K-mediated proteolysis (in words) (RHOGDI1)	Total levels of the three RHO GTPases (in words) (RHO GTPases)
0.032 s⁻¹	did not	–	COC(=O)C1(CCC(=O)c2ccc(F)cc2)N=C(c2ccc(Br)cc2)C2C(=O)N(C)C(=O)C21 (stereo not drawn) [7d]	–	–
–	slowed down the kinetics	does not compete	COC(=O)C1(C(CC(=O)c2ccccc2)c2ccccc2)N=C(c2ccc(Br)cc2)C2C(=O)N(C)C(=O)C21 (stereo not drawn) [7a]	–	–
–	–	–	COC(=O)C1(C(CC(=O)c2cccnc2)c2ccccc2)N=C(c2ccc(Br)cc2)C2C(=O)N(C)C(=O)C21 (stereo not drawn) [7l]	several peptides in the 179–199 amino acid sequence were protected	did not alter the total levels
